According to patent publication US20250340538A1, “IMIDAZOLONE DERIVATIVES AS INHIBITORS OF PROTEIN KINASES IN PARTICULAR DYRK1A, CLK1 AND/OR CLK4” (PERHA PHARMACEUTICALS, priority 2021, published 2025):
Like-named read-outs stand apart in the source and are kept apart here.

Assays:
Format in all cases: biochemical
DYRK3 = target: T1, DYRK3 (Homo sapiens, UniProt O43781); test: Radiometric protein kinase assay (33PanQinase Activity Assay), DYRK3; settings: read-out: IC50 on DYRK3 (most potent DYRK3 inhibitors)
T1 construct: GST-fusion or His-tag (not specified per kinase); purchased ProQinase GmbH; host or cells: Sf9 insect cells or E. coli (not specified per kinase)
T1 sequence (O43781 1-588): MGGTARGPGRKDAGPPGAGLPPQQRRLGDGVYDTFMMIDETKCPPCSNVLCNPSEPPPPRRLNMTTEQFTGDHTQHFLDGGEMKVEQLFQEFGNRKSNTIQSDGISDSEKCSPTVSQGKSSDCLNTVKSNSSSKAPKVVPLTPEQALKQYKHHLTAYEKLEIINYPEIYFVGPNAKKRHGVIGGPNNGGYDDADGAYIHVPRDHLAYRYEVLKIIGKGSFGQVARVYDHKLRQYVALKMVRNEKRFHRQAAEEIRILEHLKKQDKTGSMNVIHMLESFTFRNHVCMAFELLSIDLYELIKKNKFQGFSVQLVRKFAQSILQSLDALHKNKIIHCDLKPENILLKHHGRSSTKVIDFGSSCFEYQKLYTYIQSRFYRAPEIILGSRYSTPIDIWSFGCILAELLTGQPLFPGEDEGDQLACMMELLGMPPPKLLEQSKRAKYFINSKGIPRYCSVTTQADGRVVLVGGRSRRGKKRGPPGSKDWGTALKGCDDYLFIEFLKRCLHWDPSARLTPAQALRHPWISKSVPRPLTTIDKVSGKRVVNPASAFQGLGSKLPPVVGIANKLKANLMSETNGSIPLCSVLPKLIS
Protocol: (§1) Assays were performed by ProQinase GmbH (Engesserstr. 4, D-79108 Freiburg, Germany. www.proqinase.com). The IC50 profile of all compounds was determined using 12 protein kinases (CDK2/cyclin E, CK1ε, CLK1, 2, 3, 4, DYRK1A, 1B, 2, 3, 4, GSK3β).
(§2) The compounds were provided as […] in 100% DMSO. Prior to testing, the 1 μM stock solutions were subjected to a serial, semi-logarithmic dilution using 100% DMSO as a solvent. […] In the process, 90 μl H2O were added to each well of each compound dilution plate. To minimize potential precipitation, the H2O was added to each plate only a few minutes before the transfer of the compound solutions into the assay plates. The plate was shaken thoroughly, resulting in a compound dilution plate/10% DMSO.
(§3) For the assays (see below), 5 μL solution from each well of the compound dilution plates/10% DMSO were transferred into the assay plates. The final volume of the assay was 50 μL. All compounds were tested at 10 final assay concentrations in the range from 10 μM to 30 nM. The final DMSO concentration in the reaction cocktails was 1% in all cases.
(§4) All protein kinases provided by ProQinase were expressed in Sf9 insect cells or in E. coli as recombinant GST-fusion proteins or His-tagged proteins, either as full-length or enzymatically active fragments. All kinases were produced from human cDNAs and purified by either GSH-affinity chromatography or immobilized metal. Affinity tags were removed from a number of kinases during purification. The purity of the protein kinases was examined by SDS-PAGE/Coomassie staining, the identity was checked by mass spectroscopy.
(§5) A radiometric protein kinase assay (33PanQinase® Activity Assay) was used for measuring the kinase activity of the 12 protein kinases. All kinase assays were performed in 96-well FlashPlates™ from PerkinElmer (Boston, MA, USA) in a 50 μL reaction volume. The reaction cocktail was pipetted in four steps in the following order: • 25 μL of assay buffer (standard buffer/[γ-^33P]-ATP), • 10 μL of ATP solution (in H2O), • 5 μL of test compound (in 10% DMSO), • 10 μL of enzyme/substrate mixture.
(§6) The reaction cocktails were incubated at 30° C. for 60 minutes. The reaction was stopped with 50 μL of 2% (v/v) H3PO4, plates were aspirated and washed two times with 200 μL 0.9% (w/v) NaCl. Incorporation of ^33Pi was determined with a microplate scintillation counter (Microbeta, Wallac). The IC50 values for all compounds were calculated from the dose response curves
(§7) As a parameter for assay quality, the Z′-factor (Zhang et al., J. Biomol. Screen. 2: 67-73, 1999) for the low and high controls of each assay plate (n=8) was used. ProQinase's criterion for repetition of an assay plate is a Z′-factor below 0.4 (Iversen et al., J. Biomol. Screen. 3: 247-252, 2006).

CLK1 = target: T2, CLK1 (Homo sapiens, UniProt P49759); test: Radiometric protein kinase assay (33PanQinase Activity Assay), CLK1; settings: read-out: Potency Class CLK1
T2 construct: GST-fusion or His-tag (not specified per kinase); purchased ProQinase GmbH; host or cells: Sf9 insect cells or E. coli (not specified per kinase)
In short: (§8)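 Recombinant human kinases (GST- or His-tagged, full-length or active fragments, from Sf9 or E. coli) were run in the radiometric 33PanQinase assay with [γ-33P]-ATP. Compounds were tested at 10 concentrations from 10 μM to 30 nM in 1% DMSO, incubated 60 min at 30 °C, and IC50 derived from dose-response curves.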

CLK4 = target: T3, CLK4 (Homo sapiens, UniProt Q9HAZ1); test: Radiometric protein kinase assay (33PanQinase Activity Assay), CLK4; settings: read-out: IC50 on CLK4 (most potent CLK4 inhibitors)
T3 construct: GST-fusion or His-tag (not specified per kinase); purchased ProQinase GmbH; host or cells: Sf9 insect cells or E. coli (not specified per kinase)
In short: as §8

DYRK2 = target: T4, DYRK2 (Homo sapiens, UniProt Q92630); test: Radiometric protein kinase assay (33PanQinase Activity Assay), DYRK2; settings: read-out: IC50 on DYRK2 (most potent DYRK2 inhibitors)
T4 construct: GST-fusion or His-tag (not specified per kinase); purchased ProQinase GmbH; host or cells: Sf9 insect cells or E. coli (not specified per kinase)
T4 sequence (Q92630 1-601): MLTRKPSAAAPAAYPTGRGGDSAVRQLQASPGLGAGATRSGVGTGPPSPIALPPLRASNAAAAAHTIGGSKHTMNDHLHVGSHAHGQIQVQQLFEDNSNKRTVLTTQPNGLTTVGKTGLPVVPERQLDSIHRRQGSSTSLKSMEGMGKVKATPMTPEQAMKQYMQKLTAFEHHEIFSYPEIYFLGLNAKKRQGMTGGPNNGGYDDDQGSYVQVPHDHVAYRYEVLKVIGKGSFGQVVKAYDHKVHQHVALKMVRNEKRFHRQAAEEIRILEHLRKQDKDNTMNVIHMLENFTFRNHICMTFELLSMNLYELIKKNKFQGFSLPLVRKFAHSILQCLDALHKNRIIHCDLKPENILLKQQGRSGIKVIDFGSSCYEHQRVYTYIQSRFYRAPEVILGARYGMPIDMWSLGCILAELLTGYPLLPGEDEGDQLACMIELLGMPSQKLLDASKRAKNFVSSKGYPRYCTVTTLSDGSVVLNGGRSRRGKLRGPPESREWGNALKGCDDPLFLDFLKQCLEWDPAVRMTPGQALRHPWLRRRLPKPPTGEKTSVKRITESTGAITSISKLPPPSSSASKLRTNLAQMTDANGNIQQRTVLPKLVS
Protocol: as §1, §2, §3, §4, §5, §6, §7

T2 sequence (P49759 whole entry, the tested form may be a part): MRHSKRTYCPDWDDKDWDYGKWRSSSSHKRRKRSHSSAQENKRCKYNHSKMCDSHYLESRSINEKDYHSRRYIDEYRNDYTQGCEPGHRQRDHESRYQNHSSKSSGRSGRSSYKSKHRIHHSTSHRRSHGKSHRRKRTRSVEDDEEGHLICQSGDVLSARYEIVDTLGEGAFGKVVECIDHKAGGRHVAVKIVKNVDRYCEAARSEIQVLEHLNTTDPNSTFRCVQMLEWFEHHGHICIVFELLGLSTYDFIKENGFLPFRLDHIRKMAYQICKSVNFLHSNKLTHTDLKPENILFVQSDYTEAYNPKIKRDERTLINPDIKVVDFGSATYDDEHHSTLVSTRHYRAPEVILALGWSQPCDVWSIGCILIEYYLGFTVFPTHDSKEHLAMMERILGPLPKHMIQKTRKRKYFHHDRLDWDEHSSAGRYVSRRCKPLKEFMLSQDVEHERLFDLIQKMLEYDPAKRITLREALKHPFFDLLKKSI
T3 sequence (Q9HAZ1 whole entry, the tested form may be a part): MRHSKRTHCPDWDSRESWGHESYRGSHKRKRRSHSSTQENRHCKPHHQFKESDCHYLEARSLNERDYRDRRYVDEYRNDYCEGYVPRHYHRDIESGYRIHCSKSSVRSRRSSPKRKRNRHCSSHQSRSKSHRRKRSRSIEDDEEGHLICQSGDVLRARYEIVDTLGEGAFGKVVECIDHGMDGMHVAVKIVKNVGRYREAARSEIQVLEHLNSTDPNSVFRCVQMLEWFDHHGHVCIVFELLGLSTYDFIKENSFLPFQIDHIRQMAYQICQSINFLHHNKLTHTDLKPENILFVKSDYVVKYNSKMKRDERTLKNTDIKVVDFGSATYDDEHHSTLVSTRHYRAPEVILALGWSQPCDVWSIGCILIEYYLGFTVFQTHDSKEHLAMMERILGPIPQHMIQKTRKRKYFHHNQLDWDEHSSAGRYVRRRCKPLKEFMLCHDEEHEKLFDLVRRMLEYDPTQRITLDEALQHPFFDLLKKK

## O=C1NC(NC23CC4CC(CC(O)(C4)C2)C3)=N/C1=C\c1ccc2ncccc2c1 [Compound 50, (4Z)-2-[(3-hydroxy-1-adamantyl)amino]-4-(6-quinolylmethylene)-1H-imidazol-5-one]
DYRK3
  IC50: ≤ 250 nM
CLK1; IC50 class A to E
  IC50: 10 to 25 nM
CLK1; class by IC50 on CLK1, from dose-response curves
  IC50: 10 to 25 nM
CLK4
  IC50: ≤ 10 nM
DYRK2
  IC50: ≤ 250 nM
